Results taken from publication PMC11200585, “Prospects for Prostate Cancer Chemotherapy: Cytotoxic Evaluation and Mechanistic Insights of Quinolinequinones with ADME/PK Profile” (Biomedicines, 2024).

Assays:
Assay type in all cases: cell-based, human
SNB-19 = assay: NCI-60 five-dose assay (CNS cancer); conditions: 48 h, SRB
UO-31 = assay: NCI-60 five-dose assay (renal cancer); conditions: 48 h, SRB
T-47D = assay: NCI-60 five-dose assay (breast cancer); conditions: 48 h, SRB
HCT-116 = assay: NCI-60 five-dose assay (colon cancer); conditions: 48 h, SRB
OVCAR-5 = assay: NCI-60 five-dose assay (ovarian cancer); conditions: 48 h, SRB
ACHN = assay: NCI-60 five-dose assay (renal cancer); conditions: 48 h, SRB
A498 = assay: NCI-60 five-dose assay (renal cancer); conditions: 48 h, SRB
MOLT-4 [1] = assay: NCI-60 five-dose assay (leukemia); conditions: 48 h, SRB
SK-MEL-28 = assay: NCI-60 five-dose assay (melanoma); conditions: 48 h, SRB
NCI-H322M [2] = assay: NCI-60 five-dose assay (non-small cell lung cancer); conditions: 48 h, SRB
PC-3 [3] = assay: NCI-60 one-dose screen (prostate cancer); conditions: 10 µM single dose
Procedure: (§1) The obtained quinolinequinones were submitted to NCI, Bethesda, USA, and, as per standard protocol of NCI, all compounds were evaluated for their antiproliferative activity at single-dose assay (10 µM concentration in DMSO) on a panel of 60 cancer cell lines derived from leukemia, non-small-cell lung, colon, CNS, melanoma, ovarian, renal, prostate, and breast, as per protocol. Tested compounds were added to the microtiter culture plates followed by incubation for 48 h at 37 °C. Sulforhodamine B (SRB), a protein-binding dye, is used for endpoint determination. The percent of the growth of the treated cells was determined in comparison to the untreated control cells and the results of each tested compound were reported. Data from one-dose experiments pertain to the percentage growth at 10 μM [16, 17, 18].

DU-145 = assay: NCI-60 one-dose screen (prostate cancer); conditions: 10 µM single dose, 48 h
Procedure: as §1

MOLT-4 [4] = assay: NCI-60 one-dose screen (leukemia); conditions: 10 µM single dose, 48 h
Procedure: as §1

K-562 = assay: NCI-60 one-dose screen (leukemia); conditions: 10 µM single dose, 48 h
Procedure: as §1

HL-60(TB) = assay: NCI-60 one-dose screen (leukemia); conditions: 10 µM single dose, 48 h
Procedure: as §1

CCRF-CEM = assay: NCI-60 one-dose screen (leukemia); conditions: 10 µM single dose
Procedure: as §1

RPMI-8226 = assay: NCI-60 one-dose screen (leukemia); conditions: 10 µM single dose, 48 h
Procedure: as §1

SR = assay: NCI-60 one-dose screen (leukemia); conditions: 10 µM single dose, 48 h
Procedure: as §1

SF-539 = assay: NCI-60 five-dose assay (CNS cancer); conditions: 48 h, SRB
NCI-H460 [5] = assay: NCI-60 five-dose assay (non-small cell lung cancer); conditions: 48 h, SRB
EKVX [6] = assay: NCI-60 one-dose screen (non-small cell lung cancer); conditions: 10 µM single dose, 48 h
Procedure: as §1

NCI-H226 = assay: as above; conditions: 10 µM single dose, 48 h
Procedure: as §1

NCI-H23 = assay: as above; conditions: 10 µM single dose, 48 h
Procedure: as §1

A549/ATCC = assay: as above; conditions: 10 µM single dose, 48 h
Procedure: as §1

NCI-H522 = assay: as above; conditions: 10 µM single dose, 48 h
Procedure: as §1

NCI-H460 [7] = assay: as above; conditions: 10 µM single dose
Procedure: as §1

HOP-62 = assay: as above; conditions: 10 µM single dose, 48 h
Procedure: as §1

NCI-H322M [8] = assay: as above; conditions: 10 µM single dose, 48 h
Procedure: as §1

HOP-92 = assay: as above; conditions: 10 µM single dose, 48 h
Procedure: as §1

UACC-257 = assay: NCI-60 five-dose assay (melanoma); conditions: 48 h, SRB
PC-3 [9] = assay: NCI-60 five-dose assay (prostate cancer); conditions: 48 h, SRB
SW-620 = assay: NCI-60 five-dose assay (colon cancer); conditions: 48 h, SRB
MALME-3M = assay: NCI-60 five-dose assay (melanoma); conditions: 48 h, SRB
EKVX [10] = assay: NCI-60 five-dose assay (non-small cell lung cancer); conditions: 48 h, SRB
SK-OV-3 = assay: NCI-60 five-dose assay (ovarian cancer); conditions: 48 h, SRB
NCI/ADR-RES = assay: NCI-60 five-dose assay (ovarian cancer); conditions: 48 h, SRB
[11] = Homo sapiens, read-out: LC50 (the source's name)

`CCOc1ccc(NC2=C(Cl)C(=O)c3nc(C)ccc3C2=O)cc1` [AQQ3] gave a TGI (SNB-19) of 3.16 µM, a GI50 (SNB-19; Homo sapiens) of 1.68 µM and a CC50 (SNB-19; [11]) of 5.94 µM. The TGI (UO-31) was 2.75 µM, the GI50 (UO-31; Homo sapiens) was 1.43 µM and the LC50 (lethal concentration 50%) (UO-31; Homo sapiens) was 5.28 µM. The TGI (T-47D) was 3.91 µM, the GI50 (T-47D; Homo sapiens, T47D) was 1.01 µM and the CC50 (T-47D; Homo sapiens, T47D, read-out: LC50 (the source's name)) was over 100 µM. It also gave a TGI (HCT-116) of 2.79 µM, a GI50 (HCT-116; Homo sapiens) of 1.32 µM and an LC50 (HCT-116; Homo sapiens) of 5.92 µM. It also gave a TGI (OVCAR-5) of 3.46 µM, a GI50 (OVCAR-5; Homo sapiens) of 1.92 µM and an LC50 (lethal concentration 50%) (OVCAR-5; Homo sapiens) of 6.25 µM. For the same compound, the TGI (ACHN) was 2.92 µM, the GI50 (ACHN; Homo sapiens) was 1.57 µM and the LC50 (ACHN; Homo sapiens) was 5.45 µM. The TGI (A498) was 5.52 µM, the GI50 (A498; Homo sapiens) was 1.56 µM and the LC50 (A498; Homo sapiens) was 24.4 µM. It also gave a TGI (MOLT-4 [1]) of over 100 µM, a GI50 (MOLT-4 [1]; Homo sapiens) of 2.49 µM and an LC50 (MOLT-4 [1]; Homo sapiens) of over 100 µM. The TGI (SK-MEL-28) was 3.14 µM, the GI50 (SK-MEL-28; Homo sapiens) was 1.73 µM and the LC50 (SK-MEL-28; Homo sapiens) was 5.7 µM. For the same compound, the TGI (NCI-H322M [2]) was 3.74 µM, the GI50 (NCI-H322M [2]; Homo sapiens) was 1.68 µM and the CC50 (NCI-H322M [2]; [11]) was 8.29 µM. For the same compound, the “GP (growth percentage)” value (PC-3 [3]; 48 h) was 10.40%, the inhibition at 10 µM (PC-3 [3]; Homo sapiens) was 89.6% and the “GP (growth percentage)” value (DU-145) was −92.73%. For the same compound, the “GP (growth percentage)” value (MOLT-4 [4]) was −46.73%, the “GP (growth percentage)” value (K-562) was −4.17% and the “GP (growth percentage)” value (HL-60(TB)) was −46.39%. For the same compound, the “GP (growth percentage)” value (CCRF-CEM; 48 h) was 0.63%, the inhibition at 10 µM (CCRF-CEM; Homo sapiens) was 99.4% and the “GP (growth percentage)” value (RPMI-8226) was −19.35%. The “GP (growth percentage)” value (SR) was −27.42%, the TGI (SF-539) was 3.13 µM and the GI50 (SF-539; Homo sapiens) was 1.68 µM. It also gave an LC50 (SF-539; Homo sapiens) of 5.84 µM, a TGI (NCI-H460 [5]) of 10.4 µM and a GI50 (NCI-H460 [5]; Homo sapiens) of 3.08 µM. For the same compound, the CC50 (NCI-H460 [5]; [11]) was 49.7 µM, the “GP (growth percentage)” value (EKVX [6]) was −97.48% and the “GP (growth percentage)” value (NCI-H226) was −52.55%. The “GP (growth percentage)” value (NCI-H23) was −61.00%, the “GP (growth percentage)” value (A549/ATCC) was 46.18% and the “GP (growth percentage)” value (NCI-H522) was −61.57%. The “GP (growth percentage)” value (NCI-H460 [7]; 48 h) was 13.41%, the inhibition at 10 µM (NCI-H460 [7]; Homo sapiens) was 86.6% and the “GP (growth percentage)” value (HOP-62) was 72.15%. For the same compound, the “GP (growth percentage)” value (NCI-H322M [8]) was 32.37%, the “GP (growth percentage)” value (HOP-92) was −86.99% and the TGI (UACC-257) was 2.78 µM. It also gave a GI50 (UACC-257; Homo sapiens) of 1.39 µM, an LC50 (NCI-60 lethal concentration, 50% cell kill) (UACC-257; Homo sapiens) of 5.58 µM and a TGI (PC-3 [9]) of 2.77 µM. The GI50 (PC-3 [9]; Homo sapiens) was 1.29 µM, the CC50 (PC-3 [9]; [11]) was 5.93 µM and the TGI (SW-620) was 3.51 µM. The GI50 (SW-620; Homo sapiens) was 1.83 µM, the LC50 (SW-620; Homo sapiens) was 6.73 µM and the TGI (MALME-3M) was 3.16 µM. The GI50 (MALME-3M; Homo sapiens) was 1.65 µM, the LC50 (MALME-3M; Homo sapiens) was 6.02 µM and the TGI (EKVX [10]) was 3.12 µM. It also gave a GI50 (EKVX [10]; Homo sapiens) of 1.61 µM, a CC50 (EKVX [10]; [11]) of 6.05 µM and a TGI (SK-OV-3) of 30.1 µM. The GI50 (SK-OV-3; Homo sapiens) was 11 µM, the LC50 (50% net cell kill) (SK-OV-3; Homo sapiens) was 82.3 µM and the TGI (NCI/ADR-RES) was 4.11 µM. For the same compound, the GI50 (NCI/ADR-RES; Homo sapiens) was 1.7 µM and the CC50 (NCI/ADR-RES; [11]) was 9.93 µM.
